{"source": "patent US20240325292A1", "about": "“COMPOSITION AND METHODS OF TREATMENT USING TRANSDERMAL SUPPLEMENTATION” (Xygenyx Inc., priority 2023, published 2024)", "origin": "cited, not measured here", "key": {"[1]": {"settings": "as compared to α-tocopherol = 1.0"}, "[2]": {"settings": "dietary intake in equal portions"}, "[3]": {"settings": "as penetration enhancer"}, "[4]": {"system": "markers of inflammation in the blood", "settings": "individuals with metabolic syndrome"}, "[5]": {"assay": "not given", "remark": "listed apart in the source"}, "[6]": {"settings": "in vivo"}, "[7]": {"system": "wide dynamic range neurons in the ventroposterolateral nucleus of the thalamus", "settings": "in vivo"}, "rheumatoid arthritis": {"system": "rheumatoid arthritis", "settings": "arthritic subjects"}, "[8]": {"settings": "400-500 IU, in combination with 10-20 mg β-carotene and 400-500 mg vitamin C"}}}
{"compound": "Cc1c(O)cc2c(c1C)O[C@](C)(CCC[C@H](C)CCC[C@H](C)CCCC(C)C)CC2", "note": "[γ-tocopherol]", "values": [{"measurement": "relative biological activity", "setting": "[1]", "result": 0.1}, {"measurement": "concentration in vivo relative to α-tocopherol", "setting": "[2]", "result": "roughly 10%"}]}
{"compound": "C/C(=C\\CO)CCC[C@H](C)CCC[C@H](C)CCCC(C)C", "note": "[phytol, Phytol]", "values": [{"measurement": "solubility in water", "result": "nearly insoluble in water"}]}
{"compound": "CC12CCC(CC1)C(C)(C)O2", "note": "[eucalyptol, 1,8-epoxy-p-menthane]", "values": [{"measurement": "increase of transdermal drug uptake, factor", "setting": "[3]", "result": "more than 10"}]}
{"compound": "Cc1cc(O)cc2c1O[C@](C)(CCC[C@H](C)CCC[C@H](C)CCCC(C)C)CC2", "note": "[δ-tocopherol]", "values": [{"measurement": "markers of inflammation in the blood", "setting": "[4]", "result": "reduced markers of inflammation"}, {"measurement": "relative biological activity", "setting": "[1]", "result": 0.03}]}
{"compound": "CC(C)[C@@H]1CC[C@@H](C)C[C@H]1O", "note": "[Menthol]", "values": [{"measurement": "increase of transdermal drug uptake, factor", "setting": "[3]", "result": "≥ 10"}]}
{"compound": "Cc1c(C)c2c(c(C)c1O)CC[C@@](C)(CCC[C@H](C)CCC[C@H](C)CCCC(C)C)O2", "note": "[α-tocopherol]", "values": [{"measurement": "progression of age-related macular degeneration", "setting": "[5]; [8]", "result": "dramatically reduce the progression"}, {"measurement": "reduction in the development of age-related cataracts", "setting": "[5]; [8]", "result": 23, "unit": "%"}, {"measurement": "functional health of sperm", "setting": "[5]; 800-900 IU/day", "result": "improve functional health of sperm"}, {"measurement": "blood plasma concentration of F2-isoprostane", "setting": "[5]; 1600-3200 IU/day", "result": "significantly lower"}, {"measurement": "reduction of risk of coronary disease", "setting": "[5]; doses up to 400 IU/day", "result": "up to 34%"}, {"measurement": "reduction of risk of developing neurodegenerative diseases (Alzheimer's Syndrome or dementia)", "setting": "[5]; doses up to 400 IU/day, controlled trials", "result": "≤ 24", "unit": "%"}, {"measurement": "relative biological activity", "setting": "[1]", "result": 1.0}]}
{"compound": "HGH: hormone comprising a peptide chain that is synthesized in the pituitary gland", "values": [{"measurement": "biological half-life", "setting": "[6]", "result": "10-20 minutes"}]}
{"compound": "CCCCCc1cc(O)c2c(c1)OC(C)(C)C1CCC(C)=CC21", "note": "(stereo not drawn) [THC, Δ-9-tetrahydrocannabinol]", "values": [{"measurement": "potency in mediating pain relative to morphine", "setting": "[7]", "result": "ten times more powerful than morphine"}]}
{"compound": "C=C1CC/C=C(\\C)CC[C@@H]2[C@@H]1CC2(C)C", "note": "[β-caryophyllene]", "values": [{"measurement": "joint and lymph node swelling, leukocyte number", "setting": "rheumatoid arthritis", "result": "reduced swelling of joints and lymph nodes as well as the number of circulating and articular leukocytes"}]}
{"compound": "Cc1cc(O)c(C)c2c1O[C@](C)(CCC[C@H](C)CCC[C@H](C)CCCC(C)C)CC2", "note": "[β-tocopherol]", "values": [{"measurement": "relative biological activity", "setting": "[1]", "result": 0.5}]}
